ChEMBL document CHEMBL1201862, “PubChem BioAssay data set” (2004)
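All cell lines were grown in 96-well plates and treated with compound for 48 hours. The concentration for 50% growth inhibition is given as GI50.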 Calls of active or inactive are those of the source. Rule as the data show it: active = GI50 up to about 1.1 µM and inactive = higher. Starred links: 1 amine or outer side, 2 acyl side, 3 side chain; linkers in the order of their positions; H or OH if unused. Positions of bridges follow the written chain, without caps; N, C: chain ends. Non-standard residues stand in square brackets, D forms with d. Residues, ends and D or L forms follow the SMILES beside them. ξ: configuration not given here. *: point of attachment. γ4hArg(2R,3R-(OH)2) = N=C(N)NCCC[C@H](N[*:1])[C@@H](O)[C@@H](O)C(=O)[*:2]; Gln(3S,4R-Me2) = C[C@H]([C@H](N)C(=O)O)[C@@H](C)C(N)=O; X50 = CC(C)C[C@H](C)[C@@H](O)[C@@H](C)C(=O)*; X51 = COC(c1ccc(O)cc1)C(N[*:1])C(=O)[*:2]; NMeQ = CN[C@@H](CCC(N)=O)C(=O)O; Thr(3ξ) = CC(O)[C@H](N)C(=O)O; NMeA = CN[C@@H](C)C(=O)O

What was measured:
Assay in all cases: NCI anticancer screen, dose series, 48 h
[1] = test system: HCT-15
[2] = test system: CAKI-1
[3] = test system: SK-OV-3
[4] = test system: LOX IMVI
[5] = test system: SK-MEL-28
[6] = test system: UACC-62
[7] = test system: ACHN
[8] = test system: SK-MEL-2
[9] = test system: NCI/ADR-RES
[10] = test system: CCRF-CEM
[11] = test system: OVCAR-4
[12] = test system: 786-0
[13] = test system: RXF 393
[14] = test system: T47D
[15] = test system: SW-620
[16] = test system: NCI-H460
[17] = test system: HCC 2998
[18] = test system: MDA-MB-231
[19] = test system: NCI-H522
[20] = test system: RPMI-8226

SMILES | GI50 [1] [µM] | GI50 [2] | GI50 [3] | GI50 [4] | GI50 [5] | GI50 [6] | GI50 [7] | GI50 [8] | GI50 [9] | GI50 [10] | GI50 [11] | GI50 [12] | GI50 [13] | GI50 [14] | GI50 [15] | GI50 [16] | GI50 [17] | GI50 [18] | GI50 [19] | GI50 [20]
C=C(C)[C@@H]1CCC2=C[C@H](OC2=O)[C@@]2(C)C[C@@H]2C2=CC(C)=C(O2)[C@H]1O | 36.4 | 21.5 µM (inactive) | 54.5 µM (inactive) | 27.1 µM (inactive) | 46 µM (inactive) | 41.1 µM (inactive) | 36.9 µM (inactive) | 40.8 µM (inactive) | 23.6 µM (inactive) | 37.4 µM (inactive) | 42.2 µM (inactive) | 21.8 µM (inactive) | 38.5 µM (inactive) | 28.1 µM (inactive) | > 75 µM (inactive) | 54.3 µM (inactive) | > 75 µM (inactive) | 28.2 µM (inactive) | 15.1 µM (inactive) | –
CC1=[N+](C)CCN1C | > 100 | > 100 µM (inactive) | > 100 µM (inactive) | > 100 µM (inactive) | > 100 µM (inactive) | – | > 100 µM (inactive) | > 100 µM (inactive) | > 100 µM (inactive) | > 100 µM (inactive) | > 100 µM (inactive) | > 100 µM (inactive) | > 100 µM (inactive) | > 100 µM (inactive) | > 100 µM (inactive) | > 100 µM (inactive) | > 100 µM (inactive) | > 100 µM (inactive) | > 100 µM (inactive) | > 100 µM (inactive)
COC(c1ccc(O)cc1)C1NC(=O)[C@H](CCC(N)=O)N(C)C(=O)[C@H](CC(C)C)NC(=O)[C@@H](CCCN=C(N)N)NC(=O)[C@H](C(C)O)NC(=O)[C@@H](NC(=O)[C@@H](NC(=O)[C@H](O)[C@H](O)[C@H](CCCN=C(N)N)NC(=O)[C@H](C)NC(=O)[C@H](C)[C@H](O)[C@@H](C)CC(C)C)[C@@H](C)[C@@H](C)C(N)=O)[C@@H](C)OC(=O)[C@H](C)N(C)C1=O (stereo partly drawn) (X50-A[γ4hArg(2R,3R-(OH)2)][Gln(3S,4R-Me2)]T[Thr(3ξ)][dR]L[NMeQ][X51][NMeA]; ester 4-C) | 0.133 | 0.102 µM (active) | 0.189 µM (active) | 0.482 µM (active) | 0.223 µM (active) | 0.126 µM (active) | 0.115 µM (active) | 0.247 µM (active) | 0.222 µM (active) | 0.151 µM (active) | 0.134 µM (active) | 0.204 µM (active) | 0.267 µM (active) | 0.138 µM (active) | 0.137 µM (active) | 0.0604 µM (active) | 0.0877 µM (active) | 0.106 µM (active) | 0.0598 µM (active) | 0.106 µM (active)
NS(=O)(=O)c1ccc(NC(=S)NC(=O)Nc2ccc(Cl)c(Cl)c2)cc1 | 11.4 | 18.7 µM (inactive) | 18.5 µM (inactive) | 6.17 µM (inactive) | 17.8 µM (inactive) | 13.5 µM (inactive) | 11.5 µM (inactive) | 15 µM (inactive) | 16 µM (inactive) | 16.5 µM (inactive) | 14.9 µM (inactive) | 14.9 µM (inactive) | 15.3 µM (inactive) | 10.7 µM (inactive) | 16.5 µM (inactive) | 13 µM (inactive) | 14.6 µM (inactive) | 1.06 µM (active) | 16 µM (inactive) | 19.6 µM (inactive)
CN(C)/N=C/c1cn(C)c(=O)n(C)c1=O | > 100 | > 100 µM (inactive) | > 100 µM (inactive) | > 100 µM (inactive) | > 100 µM (inactive) | > 100 µM (inactive) | > 100 µM (inactive) | > 100 µM (inactive) | > 100 µM (inactive) | > 100 µM (inactive) | > 100 µM (inactive) | > 100 µM (inactive) | > 100 µM (inactive) | > 100 µM (inactive) | > 100 µM (inactive) | > 100 µM (inactive) | > 100 µM (inactive) | > 100 µM (inactive) | > 100 µM (inactive) | > 100 µM (inactive)
O=c1nc2n3c4c(cccc4nc-2c(=O)[nH]1)CCC3 | > 100 | > 100 µM (inactive) | > 100 µM (inactive) | > 100 µM (inactive) | > 100 µM (inactive) | > 100 µM (inactive) | > 100 µM (inactive) | > 100 µM (inactive) | > 100 µM (inactive) | > 100 µM (inactive) | 86.7 µM (inactive) | > 100 µM (inactive) | > 100 µM (inactive) | 60.7 µM (inactive) | > 100 µM (inactive) | > 100 µM (inactive) | > 100 µM (inactive) | > 100 µM (inactive) | 27.2 µM (inactive) | > 100 µM (inactive)
NC1=NCC(CN2CCCC2)O1 (stereo not given) | > 100 | > 100 µM (inactive) | > 100 µM (inactive) | > 100 µM (inactive) | > 100 µM (inactive) | > 100 µM (inactive) | > 100 µM (inactive) | > 100 µM (inactive) | > 100 µM (inactive) | > 100 µM (inactive) | > 100 µM (inactive) | > 100 µM (inactive) | > 100 µM (inactive) | > 100 µM (inactive) | > 100 µM (inactive) | > 100 µM (inactive) | > 100 µM (inactive) | > 100 µM (inactive) | > 100 µM (inactive) | > 100 µM (inactive)
CC(=O)N(O)c1ccc(-c2nc3ccccc3s2)cc1 | > 100 | 95.1 µM (inactive) | – | 63.4 µM (inactive) | 80.7 µM (inactive) | > 100 µM (inactive) | 47.5 µM (inactive) | 66.7 µM (inactive) | 28.4 µM (inactive) | > 100 µM (inactive) | 28.2 µM (inactive) | 55.1 µM (inactive) | 61.8 µM (inactive) | 32.9 µM (inactive) | > 100 µM (inactive) | 46.9 µM (inactive) | 61.9 µM (inactive) | 49.7 µM (inactive) | 24.5 µM (inactive) | 15 µM (inactive)
COc1ccc2c(c1[N+](=O)[O-])CC[C@@H]1[C@@H]2CC[C@]2(C)C(=O)CC[C@@H]12 | > 25 | > 25 µM (inactive) | 7.41 µM (inactive) | > 25 µM (inactive) | 20.7 µM (inactive) | 18.3 µM (inactive) | > 25 µM (inactive) | 14.8 µM (inactive) | > 25 µM (inactive) | 9.06 µM (inactive) | 15.5 µM (inactive) | 210 µM (inactive) | > 25 µM (inactive) | > 25 µM (inactive) | > 25 µM (inactive) | 24.9 µM (inactive) | > 1000 µM (inactive) | > 25 µM (inactive) | > 25 µM (inactive) | > 25 µM (inactive)
Cc1cccc2c(N)c3cccc(C(=O)NCC[N+](C)(C)Cc4ccc([N+](=O)[O-])n4C)c3nc12 | 27.9 | 7.1 µM (inactive) | 25.1 µM (inactive) | 18 µM (inactive) | 43.8 µM (inactive) | 44.3 µM (inactive) | 10.1 µM (inactive) | 67.6 µM (inactive) | 55.3 µM (inactive) | 3.7 µM (inactive) | 46.8 µM (inactive) | 7.45 µM (inactive) | 22.4 µM (inactive) | 4.71 µM (inactive) | 18.6 µM (inactive) | 8.97 µM (inactive) | 10.6 µM (inactive) | 38.6 µM (inactive) | 8.65 µM (inactive) | 12.1 µM (inactive)
CSC(=N/N=C(\C)c1ccc(S(=O)(=O)N(C)c2ccccc2)cc1)SC | > 66.7 | > 64.9 µM (inactive) | > 66.5 µM (inactive) | > 69.7 µM (inactive) | > 67.9 µM (inactive) | > 65.8 µM (inactive) | > 70 µM (inactive) | > 62.2 µM (inactive) | > 100 µM (inactive) | 15.6 µM (inactive) | > 58.6 µM (inactive) | > 64.9 µM (inactive) | 27.7 µM (inactive) | > 60.7 µM (inactive) | > 66.4 µM (inactive) | > 100 µM (inactive) | > 100 µM (inactive) | > 61.8 µM (inactive) | > 100 µM (inactive) | 13.1 µM (inactive)
CC(C)c1ccc(C2NC(S)=NC3=C2c2ccccc2C3=O)cc1 (stereo not given) | 20.6 | 22.8 µM (inactive) | 25.4 µM (inactive) | 20.6 µM (inactive) | 21.1 µM (inactive) | 12 µM (inactive) | 27.7 µM (inactive) | 17.4 µM (inactive) | 15.1 µM (inactive) | 26.5 µM (inactive) | 21.6 µM (inactive) | 22.5 µM (inactive) | 10.3 µM (inactive) | 18.2 µM (inactive) | 23.4 µM (inactive) | 29.2 µM (inactive) | > 36.6 µM (inactive) | 16.9 µM (inactive) | 17.3 µM (inactive) | 23.2 µM (inactive)
C/C=C/C=C/C1=NN(c2cccc(S(=O)(=O)O)c2)C2(C1)SCC(=O)N2c1nc2ccccc2s1 (stereo not given) | 69.2 | 86.3 µM (inactive) | – | 19.6 µM (inactive) | > 100 µM (inactive) | 40.7 µM (inactive) | 76.7 µM (inactive) | 37.8 µM (inactive) | 51.2 µM (inactive) | 24.2 µM (inactive) | 93.3 µM (inactive) | 19.8 µM (inactive) | > 100 µM (inactive) | 24.6 µM (inactive) | 72.1 µM (inactive) | 45.5 µM (inactive) | > 100 µM (inactive) | 56.2 µM (inactive) | 33.1 µM (inactive) | 29.9 µM (inactive)
CCOP(=O)(Nc1ccc2oc(=O)c3ccccc3c2c1)OCC | 79.8 | 26.2 µM (inactive) | – | 47.5 µM (inactive) | > 100 µM (inactive) | 48.1 µM (inactive) | 33.2 µM (inactive) | 62.5 µM (inactive) | 71.1 µM (inactive) | 51.3 µM (inactive) | 60.1 µM (inactive) | 76.7 µM (inactive) | 91.2 µM (inactive) | 35.3 µM (inactive) | > 100 µM (inactive) | > 100 µM (inactive) | 88.5 µM (inactive) | 38.4 µM (inactive) | 68.9 µM (inactive) | 21.2 µM (inactive)
